How the values were obtained:
Type in all cases: in vivo, Carpophilus truncatus
[1] = test system: C. truncatus; test: Laboratory dual-choice cage bioassays of co-attractant solutions; details: Experiment #2: solution lacking one component vs full commercial co-attractant (CL)
Description: Cage bioassays were developed for the rapid screening of beetle attraction to prototype co-attractant solutions. Adult beetles were separated in groups of hundred individuals (mixed sex) and starved for 48 h in (30 cm×30 cm×30 cm) mesh cages in Controlled Environment rooms (29° C., 60% RH, 16L:8D Photoperiod). Two plastic traps made from 30 mL plastic cups comprising four 5-mm holes equidistantly distributed along their circumference and a single hole in the lid were filled with 20 mL of freshly prepared test co-attractant solutions (FIG. 2) and placed inside the mesh cage approximately 15-20 cm apart. Beetles were allowed 48 h to choose between the two solutions. At the end of the experiments, traps were collected in plastic containers and beetles inside each treatment cups (alive or drowned) as well as non-selecting individuals were counted. Experiments were replicated a minimum of ten times for each prototype solution. An attraction index, used to determine the degree of attraction or deterrence of the test solution in comparison to the control, was calculated as follows: (n beetles in test solution)−(n beetles in control)/total n beetles. Attraction indices returned values ranging between −1 (extreme repellence) and +1 (extreme attraction); 0 corresponding to the absence of preference for either solutions. Deviation of the indices from zero was analysed using two tailed t-tests. Cage bioassays were used to test the attraction of C. truncatus to the commercial co-attractant (co-attractant vs water) and to screen the influence of individual constituents of the commercial Carpophilus co-attractant on C. truncatus attraction. The effect of different constituents was assessed by testing the co-attractant (control) against test co-attractant solutions in which one constituent was excluded.
In a first cage experiment (Experiment #1, table 4), the attraction of C. truncatus attraction to the commercial co-attractant (CL) was verified using water as a control treatment (FIG. 14).
In a second experiment (Experiment #2, table 4), the influence of individual components of the commercial co-attractant on C. truncatus was assessed by testing beetle's preferences between test co-attractant solutions in which a single compound was missing against the full formulation.

[2] = test system: C. truncatus antennae; test: GC-EAD (gas chromatography coupled with electroantennography) screening of odour and pheromone septa extracts; details: for EAD: compounds in solvent extracts of commercial pheromone septa, key not given, antennae responded to all but one
Description: Pheromone compounds and other biologically active compounds present in odour extracts were screened by Gas Chromatography coupled with electroantennography (GC-EAD). The same GC setup used for chemical analysis was used in conjunction with an electroantennograph (Ockenfels Syntech GmbH, Germany). An apolar column SLB-5 MS (30 m×0.32 mm×0.25 μm) used as analytical column was connected to a CFT splitter plate (Capillary Flow Technology, Agilent). A constant flow of helium (1 mL/min) used as carrier and make-up gas was maintained towards the mass spectrometer. […] The EAD restrictor was fitted in a 50 cm transfer line (Ockenfels Syntech GmbH, Germany) heated at 250° C. allowing only the last 2 mm segment of the restrictor to protrude inside a glass mixing tube (3.8 mm inner diameter) positioned above the insect preparation and in which a 29 cm/s stream of purified air was applied. The described setup allowed relatively well-synced signals between all three detectors. One-week-old beetles were anesthetized on ice and immobilised in a micropipette tip with a cotton plug, with the upper part of the abdomen exposed. A sharp glass electrode filled with an electrolyte (0.1 N KCl, 3% PVP) was inserted into the head of the beetle (reference) while a similar electrode was positioned on the disc-shaped distal end of the antenna using a micromanipulator (FIG. 1). The antennal signal was amplified and recorded using an IDAC-4 (Ockenfels Syntech, Germany). When a good contact was obtained (checked via a 1% isopentyl acetate “puff” stimulation), an aliquot of volatile extract was injected in the GC and the sensitivity or lack thereof to individual compounds was determined by the overlay of MS/FID and EAD signals. Beetle odour extracts as well as extracts from commercial synthetic Carpophilus pheromones were screened by coupled gas chromatography-electroantennographic detection (GC-EAD) to test for beetle sensitivity to the putative pheromone and those of other Carpophilus species (FIG. 9).

[3] = test system: C. truncatus male and female adult beetles; test: Y-tube olfactometer bioassays with isolated pheromone fractions; details: 20 μl isolated fraction vs hexane control, diet odour in both arms
Description: Beetle orientation to different test odours was tested in a Y-tube glass olfactometer (ID: 2 cm, 10 cm stem and 7.5 cm choice arm length, 70° angle between arms) placed on a thick white paper sheet. All the experiments were conducted in a Controlled Environment Room at 28° C. The olfactometer was placed at a 30° angle to take advantage of beetles' natural negative geotaxis. Both arms of the Y-tube were connected via glass connectors or PTFE tubing to air-tight glass chambers in which different odours were applied. Activated charcoal-filtered air was circulated through the glass chambers entraining test odours to the choice arms of the Y-tube at 400 mL/min. The olfactometer was illuminated from above by dimmable fluorescent light tubes (Fititron, Weiss Gallenkamp, UK) covered by a sheet of UV-permitting diffusing white screen paper (Rosco 216, Germany). Light intensity at both ends of the two choice arms was measured and adjusted to 990 lux using a digital lux meter. Beetles were released individually in the olfactometer's main stem and observed for 10 min. Individuals that crossed the middle of either test arms (4 cm inside the arm; empirically designated as a non-return point) were considered to have made a choice. […] Preferences for male or female odours were assessed in a similar way by testing the beetle's orientation when simultaneous exposed to male and female beetle-infested diet. […]

[4] = test system: C. truncatus; test: Field trials in almond orchards, black funnel traps; details: field trial #3a; simplified co-attractant; FIG. 19
Description: All field trials were conducted in commercial almond orchards located in Mildura area (Victoria, Australia) between 2018 and 2020. Treatments were tested in black funnel traps (supplied by Bugs for Bugs; https://bugsforbugs.com.au/product/Carpophilus-[…]/) placed at ground level and secured using metal fence […] deeply anchored in the soil (FIG. 3). This differs from the conventional use of these traps in stone fruits where traps are suspended on […] 1.5 m height and derives from pilot experiments showing that more C. truncatus are caught when traps are placed on the ground (FIG. 5). An insecticidal strip (dichlorovos) was placed inside the traps to kill captured beetles. […] Beetles responses to different odours in Y-tube olfactometer experiments were analysed using binomial tests, assuming a distribution ratio of 1:1 between the two choice arms as the null-hypothesis. […] The deviation from zero of the attraction indices calculated in cage bioassays was analysed using paired t-tests. Field trial data were analysed as the mean weekly catches per trap over the period of the trials (between 2-6 weeks depending on beetle population density) using generalized linear mixed model fitted with a negative binomial distribution. […]

CCC(C)CO (stereo not shown) [2-methylbutanol]
effect of individual component of commercial co-attractant on C. truncatus [1]: deterrent effect

C/C=C(C)/C=C(/C=C/CC)CC [(2E,4E,6E)-5-ethyl-3-methyl-2,4,6-nonatriene]
EAD [2]: ✓

C/C=C/C(C)=C/C(C)=C/C(C)=C/C [(2E,4E,6E,8E)-3,5,7-Trimethyl-2,4,6,8-decatetraene]
EAD [2]: ✓

C/C=C(C)/C=C(C)/C=C(/C=C/CC)CC [(2E,4E,6E,8E)-7-ethyl-3,5-dimethyl-2,4,6,8-undecatetraene]
EAD [2]: ✓

CC/C=C/C(=C/C(C)=C/CC)CC [(3E,5E,7E)-6-ethyl-4-methyl-3,5,7-decatriene]
EAD [2]: ✓

C/C=C/C(=C/C(C)=C/C(C)=C/C)CC [Pheromone 1, (2E,4E,6E,8E)-7-Ethyl-3,5-dimethyl-2,4,6,8-decatetraene]
EAD [2]: ✓
attraction in Y-tube olfactometer [3]: more attractive than pheromone 2

C/C=C(C)/C=C(C)/C=C(C)/C=C/CC [Pheromone 2, (2E,4E,6E,8E)-3,5,7-trimethyl-2,4,6,8-undecatetraene]
GC-EAD responses of C. truncatus males and females ([2]; beetle odour extracts): strong and consistent GC-EAD responses
EAD [2]: ✓
attraction in Y-tube olfactometer [3]: comparable level of attraction

CC=O [acetaldehyde]
effect of individual component of commercial co-attractant on C. truncatus [1]: deterrent effect

CCO [ethanol]
effect of individual component of commercial co-attractant on C. truncatus [1]: main attractants

CCOC(C)=O [ethyl acetate]
effect of individual component of commercial co-attractant on C. truncatus [1]: deterrent effect

CC(C)CO [isobutyl alcohol]
effect of individual component of commercial co-attractant on C. truncatus [1]: no observable effect

CC(C)CCO [isopentyl alcohol]
C. truncatus attraction at higher concentrations of isopentyl alcohol [4]: significantly increase
effect of individual component of commercial co-attractant on C. truncatus [1]: main attractants
